This is an account of results in US20210315869A1, “COMPOUNDS AND METHODS FOR CSK MODULATION AND INDICATIONS THEREFOR” (Plexxikon Inc., priority 2020, published 2021).

Assay [1] addresses T1, LCK (Homo sapiens, UniProt P06239).
T1 construct: purchased ProQinase
As to the kind of experiment: Human LCK enzymatic assay (AlphaScreen, Poly (Glu4-Tyr) substrate). The class given is biochemical. Conditions: 100 uM ATP; read-out: LCK IC50 (uM) COFACTOR: 100 uM ATP. The method, then:
This assay measures the ability of LCK to phosphorylate a biotinylated peptide containing multiple tyrosine residues in vitro. The LCK enzyme was purchased from ProQinase. The biotinylated Poly (Glu4-Tyr) peptide substrate was purchased from Sigma-Aldrich. The LCK enzyme assay was performed using 1 ng LCK enzyme and 30 nM Poly (Glu4-Tyr) substrate in the presence of 25 mM Hepes pH 7.5, 10 mM MnCl2, 50 mM NaCl, 0.01% Tween-20, 0.5 mM DTT, 0.01% BSA, and 100 μM ATP. A 19 μL volume of the above reaction mixture was added to wells of 384-well AlphaPlate (PerkinElmer GA, USA) containing 1 μL of various concentrations of test compound or DMSO vehicle and incubated for 40 minutes at 25° C. 16 wells containing all the components of reaction mixture and 5% DMSO served as high control. 16 wells containing all the components except ATP of reaction mixture and 5% DMSO served as low control. The enzymatic reaction was stopped by the addition of 5 μL stop/detection mixture containing 25 mM Hepes pH 7.5 100 mM EDTA, and 10 μg/mL streptavidin-coated AlphaScreen donor beads (PerkinElmer GA, USA) and incubated for 20 minutes. A 5 μL mixture containing 25 mM Hepes pH 7.5, 100 mM EDTA, and 10 μg/mL anti-phosphotyrosine antibody PY20-coated AlphaScreen acceptor beads (PerkinElmer GA, USA) was added and the plate was incubated for 1 hour at room temperature. The streptavidin donor beads bind to the biotin moiety on the biotinylated Poly (Glu4-Tyr) substrate and the PY20 antibody-coated acceptor beads bind to tyrosine residues on the substrate that have been directly phosphorylated by LCK. Upon excitation of these beads with laser light at 680 nm, singlet oxygen was produced. This singlet oxygen was rapidly quenched, unless the AlphaScreen PY20 acceptor beads are in close proximity, in which case a proximity signal can be measured at 580 nm. In the presence of catalytic activity, there was a very strong proximity signal. Selective LCK inhibitors affect a decrease in this proximity signal through a decrease in phosphorylation of the Poly (Glu4-Tyr) substrate. The percentage of inhibition at individual concentrations relative to high and low controls was calculated. The data were analyzed by using nonlinear regression to generate IC50 values.

Assay [2] deals with Jurkat/NFAT-RE cells. As to the kind of experiment: NFAT reporter assay (luciferase) in Jurkat/NFAT-RE cells. The class given is cell-based. Conditions: Homo sapiens, 0.02 μg/mL anti-CD3 antibody OKT3, 3 hours, read-out: Jurkat EC50 (uM) Cell Assay: Reporter Cell Variant: NFAT response element. The text has this:
To assess the ability of CSK inhibitors to activate LCK and stimulate signaling downstream of the T-cell receptor, an NFAT reporter assay was used for monitoring of LCK activation in cells through the activation of LCK-dependent signaling through a reporter assay. The Jurkat T-cell cell line was genetically engineered to express a luciferase reporter that is regulated by the NFAT-response element. (Clipstone, N. A., & Crabtree, G. R., Identification of calcineurin as a key signalling enzyme in T-lymphocyte activation, Nature, 357(6380), 695-697, 1992). Stimulation of the T-cell receptor with anti-CD3 antibody increases the expression of the luciferase reporter. To test the ability of CSK inhibitors to stimulate LCK and downstream T-cell signaling, the cells were stimulated with a suboptimal concentration of anti-CD3 ligand, to measure the ability of CSK inhibitors to increase luciferase expression.
This assay measures the signaling activity downstream of the T-cell receptor, specifically the ability of the NFAT transcription factor to be translocated to the nucleus and induce expression of a firefly luciferase gene. Jurkat/NFAT-RE cells stably expressing the NFAT reporter construct were purchased from BPS Bioscience. The assay was performed by plating 40,000 Jurkat/NFAT-RE cells in a 50 μL volume of serum-free growth media in a 96-well plate. Following an overnight incubation, the cells were treated with CSK inhibitors and 0.02 μg/mL anti-CD3 antibody OKT3 (BD Bioscience) for 3 hours at 37° C. High control wells were stimulated with DMSO and 5 μg/mL OKT3 to maximally stimulate the NFAT reporter, and low control wells were stimulated with DMSO and 0.02 μg/mL OKT3. Following the 3 hour incubation, the cells were assayed for viability using CellTiter-Fluor™ (Promega), and for luciferase expression using ONE-Glo™ (Promega). The ONE-Glo™ signal was normalized to the CellTiter-Fluor™ signal, and the percentage of NFAT activation relative to high and low controls was calculated. The data were analyzed by using nonlinear regression to generate EC50 values. Selective CSK inhibitors affect an increase in luciferase expression in the presence of low level stimulation of the T-cell receptor.

Assay [3] addresses T2, CSK (Homo sapiens, UniProt P41240).
T2 construct: purchased Thermo Fisher
The assay is described as follows: Human CSK enzymatic assay (AlphaScreen, Poly (Glu4-Tyr) substrate). The class given is biochemical. Conditions: 100 uM ATP; read-out: CSK IC50 (μM) COFACTOR: 100 uM ATP. The method, then:
This assay measures the ability of CSK to phosphorylate a biotinylated peptide containing multiple tyrosine residues in vitro. The CSK enzyme was purchased from Thermo Fisher. The biotinylated Poly (Glu4-Tyr) peptide substrate was purchased from Sigma-Aldrich. The CSK enzyme assay was performed using 0.75 ng CSK enzyme and 30 nM Poly (Glu4-Tyr) substrate in the presence of 25 mM Hepes pH 7.5, 5 mM Mg Acetate, 0.1% NP-40, 1 mM DTT, 0.01% BSA, and 100 μM ATP. A 19 μL volume of the above reaction mixture was added to wells of 384-well AlphaPlate (PerkinElmer GA, USA) containing 1 μL of various concentrations of test compound or DMSO vehicle and incubated for 60 minutes at room temperature. 16 wells containing all the components of reaction mixture and 5% DMSO serve as high control. 16 wells containing all the components except ATP of reaction mixture and 5% DMSO served as low control. The enzymatic reaction was stopped by the addition of 5 μL stop/detection mixture containing 25 mM Hepes pH 7.5 100 mM EDTA, and 5 μg/mL streptavidin-coated AlphaScreen donor beads (PerkinElmer GA, USA) and incubated for 20 minutes. A 5 μL mixture containing 25 mM Hepes pH 7.5, 100 mM EDTA, and 5 μg/mL anti-phosphotyrosine antibody PY20-coated AlphaScreen acceptor beads (PerkinElmer GA, USA) was added and the plate was incubated for 1 hour at room temperature. The streptavidin donor beads bind to the biotin moiety on the biotinylated Poly (Glu4-Tyr) substrate and the PY20 antibody-coated acceptor beads bind to tyrosine residues on the substrate that have been directly phosphorylated by CSK. Upon excitation of these beads with laser light at 680 nm, singlet oxygen was produced. This singlet oxygen was rapidly quenched, unless the AlphaScreen PY20 acceptor beads are in close proximity, in which case a proximity signal can be measured at 580 nm. In the presence of catalytic activity, there was a very strong proximity signal. Selective CSK inhibitors affect a decrease in this proximity signal through a decrease in phosphorylation of the Poly (Glu4-Tyr) substrate. The percentage of inhibition at individual concentrations relative to high and low controls was calculated. The data were analyzed by using nonlinear regression to generate IC50 values. Human LCK enzymatic assay

Each structure is given as a SMILES string.

T2 sequence (P41240 whole entry): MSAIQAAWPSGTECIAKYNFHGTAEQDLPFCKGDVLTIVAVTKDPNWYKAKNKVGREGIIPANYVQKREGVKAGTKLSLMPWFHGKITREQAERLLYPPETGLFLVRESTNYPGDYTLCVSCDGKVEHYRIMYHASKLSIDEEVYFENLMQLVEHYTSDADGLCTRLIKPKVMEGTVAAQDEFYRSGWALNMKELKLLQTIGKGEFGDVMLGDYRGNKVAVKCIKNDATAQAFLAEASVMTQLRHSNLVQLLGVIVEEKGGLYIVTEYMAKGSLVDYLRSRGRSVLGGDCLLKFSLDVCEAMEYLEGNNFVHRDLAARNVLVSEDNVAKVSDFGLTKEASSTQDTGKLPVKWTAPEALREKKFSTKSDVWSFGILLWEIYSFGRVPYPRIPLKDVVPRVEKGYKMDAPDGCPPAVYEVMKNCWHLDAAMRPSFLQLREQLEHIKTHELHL
T1 sequence (P06239 whole entry): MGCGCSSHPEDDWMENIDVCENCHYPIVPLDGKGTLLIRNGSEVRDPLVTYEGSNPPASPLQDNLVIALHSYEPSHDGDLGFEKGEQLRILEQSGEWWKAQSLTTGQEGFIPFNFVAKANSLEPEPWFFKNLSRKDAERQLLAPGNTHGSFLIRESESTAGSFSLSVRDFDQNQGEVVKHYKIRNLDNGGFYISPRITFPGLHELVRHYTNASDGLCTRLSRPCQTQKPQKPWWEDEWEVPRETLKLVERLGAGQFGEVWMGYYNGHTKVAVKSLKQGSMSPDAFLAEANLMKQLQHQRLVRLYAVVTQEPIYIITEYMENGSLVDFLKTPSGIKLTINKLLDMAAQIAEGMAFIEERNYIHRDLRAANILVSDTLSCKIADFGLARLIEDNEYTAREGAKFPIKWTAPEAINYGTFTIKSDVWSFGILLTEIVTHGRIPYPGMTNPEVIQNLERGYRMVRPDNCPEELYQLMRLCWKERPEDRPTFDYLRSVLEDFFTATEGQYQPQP

Turning to `Nc1cc2c(cn1)cc(-c1c(F)ccc(NS(=O)(=O)c3cc4scnc4cc3F)c1F)c(=O)n2CC(F)(F)C1CC1` [P-0017, N-(3-(7-amino-1-(2-cyclopropyl-2,2-difluoroethyl)-2-oxo-1,2-dihydro-1,6-naphthyridin-3-yl)-2,4-difluorophenyl)-5-fluorobenzo[d]thiazole-6-sulfonnamide], the IC50 in assay [1] was in the range of 5 to 100 µM; in assay [3], 0.001 to 0.5 µM. The half-maximal effective concentration (EC50) in assay [2] was 0.001 to 0.5 µM.

Consider `Nc1cc2c(cn1)cc(-c1c(F)ccc(NS(=O)(=O)c3cc4scnc4cc3F)c1F)c(=O)n2CC1CC1` [P-0002, N-(3-(7-amino-1-(cyclopropylmethyl)-2-oxo-1,2-dihydro-1,6-naphthyridin-3-yl)-2,4-difluorophenyl)-5-fluorobenzo[d]thiazole-6-sulfonamide], for which the IC50 in assay [1] fell in the range of 0.5 to 5 µM; in assay [3] it was 0.001 to 0.5 µM. For the same compound, the EC50 in assay [2] lay in the range of 0.001 to 0.5 µM.

For the compound `CC(F)(F)Cn1c(=O)c(-c2c(F)ccc(NS(=O)(=O)c3ccc4ncsc4c3F)c2F)cc2cnc(N)cc21` [P-0020, N-(3-(7-amino-1-(2,2-difluoropropyl)-2-oxo-1,2-dihydro-1,6-naphthyridin-3-yl)-2,4-difluorophenyl)-7-fluorobenzo[d]thiazole-6-sulfonamide], the results for the 50% inhibitory concentration (IC50) in assay [1] and in assay [3] were 0.5 to 5 µM and 0.001 to 0.5 µM, respectively. Besides, the EC50 in assay [2] was in the range of 0.001 to 0.5 µM.

As to `COCCn1c(=O)c(-c2c(F)ccc(NS(=O)(=O)c3cc4scnc4cc3F)c2F)cc2cnc(N)cc21` [P-0004, N-(3-(7-amino-1-(2-methoxyethyl)-2-oxo-1,2-dihydro-1,6-naphthyridin-3-yl)-2,4-difluorophenyl)-5-fluorobenzo[d]thiazole-6-sulfonamide], the figures for the IC50 in assay [1] and in assay [3] were 5 to 100 µM and 0.001 to 0.5 µM, respectively. Further, in assay [2], the EC50 fell in the range of 0.5 to 5 µM.

As for `COCCNc1cc2c(cn1)cc(-c1c(F)ccc(NS(=O)(=O)c3cc4scnc4cc3F)c1F)c(=O)n2CC1CC1` [P-0011, N-(3-(1-(cyclopropylmethyl)-7-((2-methoxyethyl)amino)-2-oxo-1,2-dihydro-1,6-naphthyridin-3-yl)-2,4-difluorophenyl)-5-fluorobenzo[d]thiazole-6-sulfonamide], the half-maximal inhibitory concentration (IC50) in assay [1] lay within 5 to 100 µM; in assay [3], 0.001 to 0.5 µM. Moreover, in assay [2], the concentration giving a half-maximal response (EC50) was 0.5 to 5 µM.
